From patent EP4635969A1, “NOVEL GLUCOCORTICOID, METHOD FOR PREPARING SAME, AND USE THEREOF” (Tianjin Pharmaceutical Biotechnology Co., Ltd., priority 2022, dated 2024)
Like-named read-outs stand apart in the source and are kept apart here.

Key:
Type in all cases: cell-based
[1] = target: T1, glucocorticoid receptor (GR) (Homo sapiens, UniProt P04150); test: Assay for agonist activity on glucocorticoid receptor (luciferase reporter, HEK293 cells transfected with pBIND-GR plasmid)
T1 sequence (P04150 521-777): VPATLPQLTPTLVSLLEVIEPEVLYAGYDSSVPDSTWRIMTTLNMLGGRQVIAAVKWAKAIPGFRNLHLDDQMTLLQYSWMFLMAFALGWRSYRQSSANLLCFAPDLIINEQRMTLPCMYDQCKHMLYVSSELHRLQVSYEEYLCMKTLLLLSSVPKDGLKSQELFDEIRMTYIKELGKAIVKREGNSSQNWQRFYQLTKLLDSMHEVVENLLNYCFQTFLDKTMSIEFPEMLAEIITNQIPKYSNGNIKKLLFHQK
How it was run: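 Readout is luciferase luminescence, with EC50 derived by nonlinear fitting. Compounds ran at 10 concentrations (4-fold steps, top 10 µM, duplicate wells) on pBIND-GR-transfected HEK293 cells in phenol red-free DMEM plus 5% charcoal-stripped serum; 0.1% DMSO served as blank.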

[2] = target: T2, progesterone receptor (PR) (Homo sapiens, UniProt P06401); test: Assay for agonist activity on progesterone receptor (luciferase reporter, HEK293 cells transfected with pBIND-PR plasmid); conditions: for EC50: EC50 of agonist activity, HEK293 reporter cells, top concentration 50 µM, read-out: Nuclear receptor enzyme activity (nM) PR; for Target selectivity PR/GR: ratio of EC50 values
T2 sequence (P06401 678-933): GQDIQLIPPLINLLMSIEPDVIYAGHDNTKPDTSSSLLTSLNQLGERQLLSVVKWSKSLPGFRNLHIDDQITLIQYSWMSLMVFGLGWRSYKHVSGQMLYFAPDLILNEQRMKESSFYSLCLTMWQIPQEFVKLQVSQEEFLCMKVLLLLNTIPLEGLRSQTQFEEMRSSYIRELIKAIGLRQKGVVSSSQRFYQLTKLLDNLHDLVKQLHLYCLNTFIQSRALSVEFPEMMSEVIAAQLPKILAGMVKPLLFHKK
Protocol: (§1) Pharmacological Example 2: Assay for Agonist Activity on Mineralocorticoid Receptor (MR) and Progesterone Receptor (PR)
(§2) Test compound stock solutions: The test compounds (compounds 4, 5, 7, 8, 9, 11, 13, 16, 17, 18, 22, 23, 24, 34, 35, 36, 38, 41, 45, 47, 53, 55, and 59) were accurately weighed, dissolved in DMSO to prepare stock solutions at a concentration of 20 mM, and stored at -20 °C.
(§3) The test compounds were subjected to a 4-fold serial dilution starting from an initial concentration of 50 µ M, generating a 12-point concentration gradient with duplicate wells for each concentration. The blank control consisted of 0.1% DMSO.
(§4) The HEK293 stable cell lines […] transfected with mineralocorticoid receptor (MR) and progesterone receptor (PR) (ICE Bioscience, Lot No. TYP-20220819, TPJ-20220812) were cultured in Dulbecco's Modified Eagle Medium (DMEM) supplemented with 10% fetal bovine serum (FBS) and 200 µ g/ml Hygromycin B in a cell incubator containing 5% CO2 at 37 °C. The spent medium was aspirated, and the cells were washed once with phosphate-buffered saline (PBS). Then, 1 mL of TrypLE™ Express solution was added, and the cells were incubated at 37 °C for approximately 2 min. When the cells detached from the bottom of the cell culture dish, approximately 5 mL of pre-warmed complete medium at 37 °C was added. The cell suspension was gently pipetted with a pipette to dissociate clumped cells. The cell suspension was transferred to a sterile centrifuge tube and centrifuged at 1000 rpm for 5 min to pellet the cells for experiments or subculture..
(§5) HEK293 cells were digested and seeded into 6-cm culture dishes. The pBIND-MR and pBIND-PR plasmids were separately transfected into the HEK293 cells using a transfection reagent, resulting in HEK293 cells successfully transfected with the pBIND-MR and pBIND-PR plasmids, respectively. The cells were resuspended in phenol red-free DMEM medium containing 5% charcoal-stripped serum, counted, and then seeded into 96-well plates. The test compounds were added, and the plates were then incubated in an incubator. The luminescence signal values were measured using a multimode microplate reader following the instructions of the luciferase assay kit. The EC50 values of each test compound were calculated using the nonlinear fitting formula with GraphPad Prism 8.0 software.

[3] = target: T3, mineralocorticoid receptor (MR) (Homo sapiens, UniProt P08235); test: Assay for agonist activity on mineralocorticoid receptor (luciferase reporter, HEK293 cells transfected with pBIND-MR plasmid); conditions: for EC50: EC50 of agonist activity, HEK293 reporter cells, top concentration 50 µM, read-out: Nuclear receptor enzyme activity (nM) MR; for Target selectivity MR/GR: ratio of EC50 values
T3 sequence (P08235 726-984): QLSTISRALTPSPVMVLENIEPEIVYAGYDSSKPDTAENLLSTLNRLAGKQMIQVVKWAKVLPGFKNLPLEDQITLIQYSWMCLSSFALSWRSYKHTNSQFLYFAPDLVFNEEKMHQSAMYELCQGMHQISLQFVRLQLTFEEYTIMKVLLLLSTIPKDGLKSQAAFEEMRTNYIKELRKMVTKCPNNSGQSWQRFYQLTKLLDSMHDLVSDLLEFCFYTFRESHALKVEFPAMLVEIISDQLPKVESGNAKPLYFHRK
Protocol: as §1, §2, §3, §4, §5

[4] = EC50 of agonist activity, HEK293 reporter cells, read-out: Nuclear receptor enzyme activity (nM) GR
[5] = HEK293 cells transfected with pBIND-GR, luciferase signal, read-out: GR agonist EC50

Row | SMILES | EC50 [1, 4] | EC50 [1, 5] | EC50 [2] | Target selectivity PR/GR [2] | EC50 [3] | Target selectivity MR/GR [3]
1 | C[C@]12C=CC(=O)C=C1CC[C@H]1[C@@H]3C[C@H]4OC(c5ccc(SC6CCOC6=O)cc5)O[C@@]4(C(=O)CO)[C@@]3(C)C[C@H](O)[C@@]12F (stereo partly drawn) [Compound 41, (6aS,6bR,7S,8aS,8bS,11aR,12aS,12bS)-6b-Fluoro-7-hydroxy-8b-(2-hydroxyacetyl)-6a,8a-dimethyl-10-(4-((2-oxotetrahydrofuran-3-yl)thio)phenyl)-1,2,6a,6b,7,8,8a,8b,11a,12,12a,12b-dodecahydr o-4H-naphtho[2',1':4,5]indeno[1,2-d][1,3]dioxol-4-one] | 6.19 nM | 6.19 nM | > 50000 nM | > 8077 | > 50000 nM | > 8077
2 | C[C@]12C=CC(=O)C=C1[C@@H](F)C[C@H]1[C@@H]3C[C@H]4OC(c5ccc(OCC6CCOC6=O)cc5)O[C@@]4(C(=O)CO)[C@@]3(C)C[C@H](O)[C@@]12F (stereo partly drawn) [Compound 13, (2S,6aS,6bR,7S,8aS,8bS,11aR,12aS,12bS)-2,6b-Difluoro-7-hydroxy-8b-(2-hydroxyacetyl)-6a,8a-dimethyl-10-(4-((2-oxotetrahydrofuran-3-yl)methoxy)phenyl)-1,2,6a,6b,7,8,8a,8b,11a,12,12a,12b-dodecahydro-4H-naphtho[2',1':4,5]indeno[1,2-d][1,3]dioxol-4-one] | 3.43 nM | 3.43 nM | > 50000 nM | > 1.4×10^4 | > 50000 nM | > 1.4×10^4
3 | C[C@]12C=CC(=O)C=C1[C@@H](F)C[C@H]1[C@@H]3C[C@H]4OC(C5CCN(C(=O)C6COC(=O)C6)CC5)O[C@@]4(C(=O)SCF)[C@@]3(C)C[C@H](O)[C@@]12F (stereo partly drawn) [Compound 4, S-(Fluoromethyl) (2S,6aS,6bR,7S,8aS,8bS,11aR,12aS,12bS)-2,6b-difluoro-7-hydroxy-6a,8a-dimethyl-4-oxo-10-(1-(5-oxotetrahydrofuran-3-carbonyl)piperidin-4-yl)-1,2,4,6a,6b,7,8,8a,11a,12,12a,12b-dodecahydro-8bH-naphtho[2',1':4,5]indeno[1,2-d][1,3]dioxole-8b-carbothioate] | 11.8 nM | 11.8 nM | > 50000 nM | > 4223 | > 50000 nM | > 4223
4 | C[C@]12C=CC(=O)C=C1CC[C@H]1[C@@H]3C[C@H]4OC(c5cnc(CSC6CCOC6=O)nc5)O[C@@]4(C(=O)CO)[C@@]3(C)C[C@H](O)[C@@]12F (stereo partly drawn) [Compound 53, (6aS,6bR,7S,8aS,8bS,11aR,12aS,12bS)-6b-Fluoro-7-hydroxy-8b-(2-hydroxyacetyl)-6a,8a-dimethyl-10-(2-(((2-oxotetrahydrofuran-3-yl)thio)methyl)pyrimidin-5-yl)-1,2,6a,6b,7,8,8a,8b,11a,12,12a, 12b-dodecahydro-4H-naphtho[2',1':4,5]indeno[1,2-d][1,3]dioxol-4-one] | 8.31 nM | 8.31 nM | > 50000 nM | 6017 | > 50000 nM | 6017
5 | C[C@]12C=CC(=O)C=C1CC[C@H]1[C@@H]3C[C@H]4OC(c5ccc(CSC6CCOC6=O)cc5)O[C@@]4(C(=O)CCl)[C@@]3(C)C[C@H](O)[C@@]12Cl (stereo partly drawn) [Compound 38, (6aS,6bR,7S,8aS,8bS,11aR,12aS,12bS)-6b-chloro-8b-(2-chloroacetyl)-7-hydroxy-6a,8a-dimethyl-10-(4-(((2-oxotetrahydrofuran-3-yl)thio)methyl)phenyl)-1,2,6a,6b,7,8,8a,8b,11a,12,12a,12b-dode cahydro-4H-naphtho[2',1':4,5]indeno[1,2-d][1,3]dioxol-4-one] | 0.11 nM | 0.11 nM | > 50000 nM | > 4.5×10^5 | > 50000 nM | > 4.5×10^5
6 | C[C@]12C=CC(=O)C=C1CC[C@H]1[C@@H]3C[C@H]4OC(c5ccc(CNC6CCOC6=O)cc5)O[C@@]4(C(=O)CO)[C@@]3(C)C[C@H](O)[C@@]12F (stereo partly drawn) [Compound 18, (6aS,6bR,7S,8aS,8bS,11aR,12aS,12bS)-6b-Fluoro-7-hydroxy-8b-(2-hydroxyacetyl)-6a,8a-dimethyl-10-(4-(((2-oxotetrahydrofuran-3-yl)amino)methyl)phenyl)-1,2,6a,6b,7,8,8a,8b,11a,12,12a,12b-dodecahydro-4H-naphtho[2',1':4,5]indeno[1,2-d][1,3]dioxol-4-one] | 1.62 nM | 1.62 nM | > 50000 nM | > 3.1×10^4 | > 50000 nM | > 3.1×10^4
7 | C[C@]12C=CC(=O)C=C1[C@@H](F)C[C@H]1[C@@H]3C[C@H]4OC(c5ccc(C[S+]([O-])C6CCOC6=O)cc5)O[C@@]4(C(=O)CO)[C@@]3(C)C[C@H](O)[C@@]12F (stereo partly drawn) [Compound 55, (2S,6aS,6bR,7S,8aS,8bS,11aR,12aS,12bS)-2,6b-Difluoro-7-hydroxy-8b-(2-hydroxyacetyl)-6a,8a-dimethyl-10-(4-(((2-oxotetrahydrofuran-3-yl)sulfinyl)methyl)phenyl)-1,2,6a,6b,7,8,8a,8b,11a,12,1 2a,12b-dodecahydro-4H-naphtho[2',1':4,5]indeno[1,2-d][1,3]dioxol-4-one] | 1.33 nM | 1.33 nM | > 50000 nM | > 3.8×10^4 | > 50000 nM | > 3.8×10^4
8 | C[C@]12C=CC(=O)C=C1[C@@H](F)C[C@H]1[C@@H]3C[C@H]4OC(c5ccc(CNC6CCOC6=O)cc5)O[C@@]4(C(=O)CO)[C@@]3(C)C[C@H](O)[C@@]12F (stereo partly drawn) [Compound 9, (2S,6aS,6bR,7S,8aS,8bS,11aR,12aS,12bS)-2,6b-Difluoro-7-hydroxy-8b-(2-hydroxyacetyl)-6a,8a-dimethyl-10-(4-(((2-oxotetrahydrofuran-3-yl)amino)methyl)phenyl)-1,2,6a,6b,7,8,8a,8b,11a,12,12 a,12b-dodecahydro-4H-naphtho[2',1':4,5]indeno[1,2-d][1,3]dioxol-4-one] | 3.27 nM | 3.27 nM | > 50000 nM | > 1.5×10^4 | > 50000 nM | > 1.5×10^4
9 | C[C@]12C=CC(=O)C=C1[C@@H](F)C[C@H]1[C@@H]3C[C@H]4OC(c5ccc(NC(=O)C6COC(=O)C6)cc5)O[C@@]4(C(=O)SCF)[C@@]3(C)C[C@H](O)[C@@]12F (stereo partly drawn) [Compound 5, S-(Fluoromethyl) (2S,6aS,6bR,7S,8aS,8bS,11aR,12aS,12bS)-2,6b-difluoro-7-hydroxy-6a,8a-dimethyl-4-oxo-10-(4-(5-oxotetrahydrofuran-3-carboxamido)phenyl)-1,2,4,6a,6b,7,8,8a,11a,12,12a,12b-dodecahydro-8b H-naphtho[2',1':4,5]indeno[1,2-d][1,3]dioxole-8b-carbothioate] | 5.23 nM | 5.23 nM | > 50000 nM | > 9560 | > 50000 nM | > 9560
